Where two headings read alike, the source gives them in different places.
What was measured:
EGFR Del19/T790M/C797S = EGFR Del19/T790M/C797S (Homo sapiens, UniProt P00533, C797S/DEL746-750/T790M); assay: Biochemical EGFR kinase inhibition assay (Lance Ultra TR-FRET), triple mutant del19/T790M/C797S
Method in brief: (§1)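 In this biochemical assay, phosphorylation after a one-hour room-temperature reaction was detected with europium-labelled anti-phosphopeptide antibody at 2 nM final concentration.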

EGFR L858R/T790M/C797S = EGFR L858R/T790M/C797S (Homo sapiens, UniProt P00533, C797S/L858R/T790M); assay: Biochemical EGFR kinase inhibition assay (Lance Ultra TR-FRET), triple mutant L858R/T790M/C797S
Method in brief: as §1

EGFR Del19/C797S = EGFR Del19/C797S (Homo sapiens, UniProt P00533, C797S/DEL746-750); assay: Biochemical EGFR kinase inhibition assay (Lance Ultra TR-FRET), double mutant del19/C797S
Method in brief: as §1

EGFR L858R/C797S = EGFR L858R/C797S (Homo sapiens, UniProt P00533, C797S/L858R); assay: Biochemical EGFR kinase inhibition assay (Lance Ultra TR-FRET), double mutant L858R/C797S
Method in brief: as §1

EGFR wildtype (WT) = EGFR wildtype (WT) (Homo sapiens, UniProt P00533); assay: Biochemical EGFR kinase inhibition assay (Lance Ultra TR-FRET), wildtype
Method in brief: as §1

[1] = read-out: IC50 Del19/T790M/C797S (nM), 100 μM ATP
[2] = read-out: IC50 L858R/T790M/C797S (nM), 100 μM ATP
[3] = read-out: IC50 Del19/C797S (nM), 100 μM ATP
[4] = read-out: IC50 L858R/C797S (nM), 100 μM ATP
[5] = read-out: IC50 WT (nM), 100 μM ATP
[6] = IC50 Del19/T790M/C797S (nM), 100 μM ATP
[7] = IC50 L858R/T790M/C797S (nM), 100 μM ATP
[8] = IC50 Del19/C797S (nM), 100 μM ATP
[9] = IC50 L858R/C797S (nM), 100 μM ATP
[10] = Km ATP, read-out: IC50 Del19/T790M/C797S (nM) Km ATP
[11] = Km ATP, read-out: IC50 L858R/T790M/C797S (nM) Km ATP
[12] = Km ATP, read-out: IC50 Del19/C797S (nM) Km ATP
[13] = Km ATP, read-out: IC50 L858R/C797S (nM) Km ATP
[14] = Km ATP, read-out: IC50 WT (nM) Km ATP
[15] = ATP at Km, read-out: IC50 Del19/T790M/C797S (nM), Km ATP
[16] = ATP at Km, read-out: IC50 L858R/T790M/C797S (nM), Km ATP
[17] = ATP at Km, read-out: IC50 Del19/C797S (nM), Km ATP
[18] = ATP at Km, read-out: IC50 L858R/C797S (nM), Km ATP
[19] = ATP at Km, read-out: IC50 WT (nM), Km ATP

Sequence of EGFR wildtype (WT) (P00533 25-1210): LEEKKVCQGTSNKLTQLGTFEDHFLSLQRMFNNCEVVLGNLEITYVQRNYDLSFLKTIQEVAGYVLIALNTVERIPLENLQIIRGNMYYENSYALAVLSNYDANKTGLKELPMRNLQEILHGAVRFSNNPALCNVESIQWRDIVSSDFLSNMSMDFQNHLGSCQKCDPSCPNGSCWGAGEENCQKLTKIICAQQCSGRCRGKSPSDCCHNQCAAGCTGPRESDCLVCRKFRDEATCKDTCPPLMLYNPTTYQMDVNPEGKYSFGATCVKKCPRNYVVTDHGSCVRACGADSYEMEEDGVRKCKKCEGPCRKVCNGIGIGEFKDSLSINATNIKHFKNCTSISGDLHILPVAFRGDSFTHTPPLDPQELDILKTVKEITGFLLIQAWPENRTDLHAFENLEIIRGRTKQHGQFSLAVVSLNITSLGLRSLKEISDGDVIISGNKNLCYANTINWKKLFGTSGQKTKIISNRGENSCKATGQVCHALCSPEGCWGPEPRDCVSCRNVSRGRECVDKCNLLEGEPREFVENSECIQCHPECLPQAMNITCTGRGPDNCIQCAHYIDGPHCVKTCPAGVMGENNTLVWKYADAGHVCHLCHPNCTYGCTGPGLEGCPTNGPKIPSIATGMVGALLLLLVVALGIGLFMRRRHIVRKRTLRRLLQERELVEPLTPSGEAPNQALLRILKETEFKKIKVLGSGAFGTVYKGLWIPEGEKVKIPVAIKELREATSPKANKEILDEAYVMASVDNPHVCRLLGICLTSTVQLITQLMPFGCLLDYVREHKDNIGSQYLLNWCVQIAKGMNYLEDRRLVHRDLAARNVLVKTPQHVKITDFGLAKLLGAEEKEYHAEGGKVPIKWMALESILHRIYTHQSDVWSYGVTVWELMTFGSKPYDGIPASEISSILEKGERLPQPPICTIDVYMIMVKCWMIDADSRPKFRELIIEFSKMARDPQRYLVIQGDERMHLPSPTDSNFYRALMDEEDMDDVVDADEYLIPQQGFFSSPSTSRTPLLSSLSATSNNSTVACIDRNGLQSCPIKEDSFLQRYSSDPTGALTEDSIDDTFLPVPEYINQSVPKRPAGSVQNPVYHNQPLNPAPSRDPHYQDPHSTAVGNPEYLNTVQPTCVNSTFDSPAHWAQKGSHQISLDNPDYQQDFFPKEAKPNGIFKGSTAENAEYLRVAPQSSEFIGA
Sequence of EGFR Del19/C797S (P00533 with tags, fused parts or gaps DEL746-750/C797S): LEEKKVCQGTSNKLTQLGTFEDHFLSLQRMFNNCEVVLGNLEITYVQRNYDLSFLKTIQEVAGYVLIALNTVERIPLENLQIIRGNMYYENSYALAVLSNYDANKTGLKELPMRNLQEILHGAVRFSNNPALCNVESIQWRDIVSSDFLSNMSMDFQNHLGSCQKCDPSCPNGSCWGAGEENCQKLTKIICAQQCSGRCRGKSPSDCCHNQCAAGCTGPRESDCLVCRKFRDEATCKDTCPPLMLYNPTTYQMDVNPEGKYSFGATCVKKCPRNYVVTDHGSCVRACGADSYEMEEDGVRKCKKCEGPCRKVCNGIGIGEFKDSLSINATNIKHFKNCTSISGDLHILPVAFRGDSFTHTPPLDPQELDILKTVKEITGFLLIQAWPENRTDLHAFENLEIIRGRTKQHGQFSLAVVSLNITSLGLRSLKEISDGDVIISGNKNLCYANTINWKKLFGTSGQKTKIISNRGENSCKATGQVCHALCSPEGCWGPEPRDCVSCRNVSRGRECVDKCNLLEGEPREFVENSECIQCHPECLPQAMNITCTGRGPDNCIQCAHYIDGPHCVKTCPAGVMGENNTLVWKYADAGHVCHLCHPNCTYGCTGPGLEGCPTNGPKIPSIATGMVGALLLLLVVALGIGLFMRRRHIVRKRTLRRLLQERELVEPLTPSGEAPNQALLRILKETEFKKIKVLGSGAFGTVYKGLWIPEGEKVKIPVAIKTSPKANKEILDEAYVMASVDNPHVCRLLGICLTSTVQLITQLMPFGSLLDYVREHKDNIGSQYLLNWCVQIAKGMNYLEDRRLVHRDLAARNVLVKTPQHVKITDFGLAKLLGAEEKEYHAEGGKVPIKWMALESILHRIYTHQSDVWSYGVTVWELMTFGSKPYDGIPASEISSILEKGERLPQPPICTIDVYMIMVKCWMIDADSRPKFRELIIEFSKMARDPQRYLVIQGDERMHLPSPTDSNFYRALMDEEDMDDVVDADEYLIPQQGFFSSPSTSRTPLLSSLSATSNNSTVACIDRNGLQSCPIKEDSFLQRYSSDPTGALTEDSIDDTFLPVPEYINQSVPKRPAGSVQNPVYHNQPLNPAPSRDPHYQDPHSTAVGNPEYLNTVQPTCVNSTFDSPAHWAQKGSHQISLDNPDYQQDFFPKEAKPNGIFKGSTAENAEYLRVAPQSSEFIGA
Sequence of EGFR L858R/T790M/C797S (P00533 25-1210 T790M/C797S/L858R): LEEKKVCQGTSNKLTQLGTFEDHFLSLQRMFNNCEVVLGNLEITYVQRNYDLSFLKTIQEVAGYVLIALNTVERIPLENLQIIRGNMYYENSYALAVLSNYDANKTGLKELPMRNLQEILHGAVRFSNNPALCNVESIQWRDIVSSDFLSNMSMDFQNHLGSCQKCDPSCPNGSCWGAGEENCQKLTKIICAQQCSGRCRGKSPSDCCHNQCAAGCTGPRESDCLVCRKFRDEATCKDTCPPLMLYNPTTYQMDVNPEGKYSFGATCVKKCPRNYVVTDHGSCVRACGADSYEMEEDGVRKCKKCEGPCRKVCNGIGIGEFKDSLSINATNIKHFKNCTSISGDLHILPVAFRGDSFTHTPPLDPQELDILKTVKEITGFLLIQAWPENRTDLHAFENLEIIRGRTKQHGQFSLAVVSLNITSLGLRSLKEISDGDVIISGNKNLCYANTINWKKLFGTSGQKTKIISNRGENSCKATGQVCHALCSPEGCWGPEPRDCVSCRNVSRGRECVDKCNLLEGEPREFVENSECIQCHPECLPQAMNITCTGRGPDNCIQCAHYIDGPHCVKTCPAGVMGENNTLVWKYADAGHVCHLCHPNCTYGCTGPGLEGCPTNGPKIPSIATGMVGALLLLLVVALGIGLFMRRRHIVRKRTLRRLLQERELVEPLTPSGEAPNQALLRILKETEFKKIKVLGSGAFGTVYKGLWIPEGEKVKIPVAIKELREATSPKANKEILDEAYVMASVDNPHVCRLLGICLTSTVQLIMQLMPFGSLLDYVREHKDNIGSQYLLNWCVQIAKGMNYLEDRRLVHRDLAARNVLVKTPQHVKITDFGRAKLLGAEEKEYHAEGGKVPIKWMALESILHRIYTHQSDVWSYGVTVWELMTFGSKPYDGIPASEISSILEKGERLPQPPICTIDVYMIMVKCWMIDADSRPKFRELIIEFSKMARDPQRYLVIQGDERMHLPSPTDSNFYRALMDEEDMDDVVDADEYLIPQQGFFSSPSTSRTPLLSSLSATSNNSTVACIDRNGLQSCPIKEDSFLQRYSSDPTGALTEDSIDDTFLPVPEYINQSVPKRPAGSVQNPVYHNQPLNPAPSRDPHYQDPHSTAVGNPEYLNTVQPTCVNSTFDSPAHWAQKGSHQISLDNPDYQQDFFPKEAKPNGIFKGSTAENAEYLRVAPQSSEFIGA
Sequence of EGFR L858R/C797S (P00533 25-1210 C797S/L858R): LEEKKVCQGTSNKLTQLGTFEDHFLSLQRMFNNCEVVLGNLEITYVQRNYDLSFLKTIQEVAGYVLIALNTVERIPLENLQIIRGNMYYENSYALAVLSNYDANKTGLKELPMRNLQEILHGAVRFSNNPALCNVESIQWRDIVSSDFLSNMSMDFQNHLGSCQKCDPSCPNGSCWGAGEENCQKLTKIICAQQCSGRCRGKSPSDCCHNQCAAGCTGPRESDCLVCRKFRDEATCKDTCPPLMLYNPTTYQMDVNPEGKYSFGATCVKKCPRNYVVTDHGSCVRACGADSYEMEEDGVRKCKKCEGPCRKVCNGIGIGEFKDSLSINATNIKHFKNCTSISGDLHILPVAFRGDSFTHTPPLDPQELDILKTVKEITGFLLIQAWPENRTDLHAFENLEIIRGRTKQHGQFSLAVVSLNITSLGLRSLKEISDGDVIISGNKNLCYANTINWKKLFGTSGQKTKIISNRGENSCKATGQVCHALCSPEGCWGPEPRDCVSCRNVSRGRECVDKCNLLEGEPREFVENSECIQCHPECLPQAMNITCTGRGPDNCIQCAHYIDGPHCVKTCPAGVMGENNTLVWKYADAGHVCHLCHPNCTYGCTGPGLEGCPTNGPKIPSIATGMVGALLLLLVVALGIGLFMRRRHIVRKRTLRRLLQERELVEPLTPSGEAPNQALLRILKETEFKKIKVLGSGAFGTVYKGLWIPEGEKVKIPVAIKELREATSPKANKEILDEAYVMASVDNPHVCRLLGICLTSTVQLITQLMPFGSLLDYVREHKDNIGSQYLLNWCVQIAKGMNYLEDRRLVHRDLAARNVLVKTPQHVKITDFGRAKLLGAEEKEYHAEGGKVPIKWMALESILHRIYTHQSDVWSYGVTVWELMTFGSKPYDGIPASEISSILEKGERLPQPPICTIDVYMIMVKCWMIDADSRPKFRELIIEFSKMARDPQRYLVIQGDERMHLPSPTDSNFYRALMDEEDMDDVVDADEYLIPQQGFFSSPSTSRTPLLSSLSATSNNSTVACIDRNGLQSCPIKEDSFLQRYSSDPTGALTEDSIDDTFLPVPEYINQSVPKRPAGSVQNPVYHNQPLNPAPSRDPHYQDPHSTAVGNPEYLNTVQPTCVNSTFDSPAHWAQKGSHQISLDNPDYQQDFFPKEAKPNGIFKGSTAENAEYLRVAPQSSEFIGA

Row | Structure (SMILES) | IC50 (EGFR Del19/T790M/C797S; [6]) | IC50 (EGFR L858R/T790M/C797S; [7]) | IC50 (EGFR Del19/C797S; [8]) | IC50 (EGFR L858R/C797S; [9]) | IC50 (EGFR wildtype (WT); IC50 WT (nM), 100 μM ATP) | further results
1 | Cn1cnc(C#Cc2cnc(Nc3ccnc(-c4cnn(S(=O)(=O)C5CC5)c4)n3)cc2N[C@H]2CC[C@@H](O)CC2)c1 [Example 216, (1s,4s)-4-((2-((2-(1-(Cyclopropylsulfonyl)-1H-pyrazol-4-yl)pyrimidin-4-yl)amino)-5-((1-methyl-1H-imidazol-4-yl)ethynyl)pyridin-4-yl)amino)cyclohexan-1-ol] |  |  |  |  |  | IC50 (EGFR Del19/T790M/C797S; [1]): 0.7 nM; IC50 (EGFR L858R/T790M/C797S; [2]): 0.8 nM; IC50 (EGFR Del19/C797S; [3]): 4.9 nM; IC50 (EGFR L858R/C797S; [4]): 28 nM; IC50 (EGFR wildtype (WT); [5]): > 10000 nM
2 | CN(C)C(=O)Cn1cc(C#Cc2cnc(Nc3ccnc(-c4cnn(S(=O)(=O)C5CC5)c4)n3)cc2N[C@H]2CC[C@@](C)(O)CC2)cn1 [Example 221, 2-(4-((6-((2-(1-(Cyclopropylsulfonyl)-1H-pyrazol-4-yl)pyrimidin-4-yl)amino)-4-(((1s,4s)-4-hydroxy-4-methylcyclohexyl)amino)pyridin-3-yl)ethynyl)-1H-pyrazol-1-yl)-N,N-dimethylacetamide] |  |  |  |  |  | IC50 (EGFR Del19/T790M/C797S; [10]): 2.9 nM; IC50 (EGFR Del19/T790M/C797S; [1]): 2 nM; IC50 (EGFR L858R/T790M/C797S; [11]): 0.8 nM; IC50 (EGFR L858R/T790M/C797S; [2]): 2.2 nM; IC50 (EGFR Del19/C797S; [12]): 6.3 nM; IC50 (EGFR Del19/C797S; [3]): 8.4 nM; IC50 (EGFR L858R/C797S; [13]): 3.8 nM; IC50 (EGFR L858R/C797S; [4]): 33 nM; IC50 (EGFR wildtype (WT); [14]): 65 nM; IC50 (EGFR wildtype (WT); [5]): > 10000 nM
3 | Cn1cnc(C#Cc2cnc(Nc3ccnc(-c4cnn(S(=O)(=O)C5CC5)c4)n3)cc2NCC(C)(C)CO)c1 [Example 224, 3-((2-((2-(1-(Cyclopropylsulfonyl)-1H-pyrazol-4-yl)pyrimidin-4-yl)amino)-5-((1-methyl-1H-imidazol-4-yl)ethynyl)pyridin-4-yl)amino)-2,2-dimethylpropan-1-ol] | 1.8 nM | 26.1 nM | 37.7 nM | 286 nM | > 10000 nM | 
4 | CC(C)(C#Cc1cnc(Nc2ccnc(-c3cnn(S(=O)(=O)C4CC4)c3)n2)cc1N[C@H]1CC[C@@H](O)CC1)N1CCOCC1 [Example 230, (1s,4s)-4-((2-((2-(1-(Cyclopropylsulfonyl)-1H-pyrazol-4-yl)pyrimidin-4-yl)amino)-5-(3-methyl-3-morpholinobut-1-yn-1-yl)pyridin-4-yl)amino)cyclohexan-1-ol] | 5.9 nM | 18.2 nM | 1720 nM | 813 nM | > 10000 nM | 
5 | CC1(CO)CCN(c2cc(Nc3ccnc(-c4cnn(S(=O)(=O)C5CC5)c4)n3)ncc2C#Cc2cnn(CCN3CCOCC3)c2)CC1 [Example 232, (1-(2-((2-(1-(Cyclopropylsulfonyl)-1H-pyrazol-4-yl)pyrimidin-4-yl)amino)-5-((1-(2-morpholinoethyl)-1H-pyrazol-4-yl)ethynyl)pyridin-4-yl)-4-methylpiperidin-4-yl)methanol] | 1.3 nM | 1.3 nM | 1.1 nM | 5.9 nM | 719 nM | IC50 (EGFR Del19/T790M/C797S; [10]): 0.8 nM; IC50 (EGFR L858R/T790M/C797S; [11]): 0.5 nM; IC50 (EGFR Del19/C797S; [12]): 0.4 nM; IC50 (EGFR L858R/C797S; [13]): 0.2 nM; IC50 (EGFR wildtype (WT); [14]): 0.9 nM
6 | CC1(CO)CCN(c2cc(Nc3ccnc(-c4cnn(S(=O)(=O)C5CC5)c4)n3)ncc2C#Cc2cnn(CC3COCCO3)c2)CC1 (stereo not shown) [Example 242, (1-(5-((1-((1,4-Dioxan-2-yl)methyl)-1H-pyrazol-4-yl)ethynyl)-2-((2-(1-(cyclopropylsulfonyl)-1H-pyrazol-4-yl)pyrimidin-4-yl)amino)pyridin-4-yl)-4-methylpiperidin-4-yl)methanol] | 1 nM | 1.6 nM | 0.6 nM | 13.8 nM | 2610 nM | IC50 (EGFR Del19/T790M/C797S; [15]): 0.8 nM; IC50 (EGFR L858R/T790M/C797S; [16]): 0.4 nM; IC50 (EGFR Del19/C797S; [17]): 0.7 nM; IC50 (EGFR L858R/C797S; [18]): 1 nM; IC50 (EGFR wildtype (WT); [19]): 4.6 nM

Now from value to molecule, other results behind:

Row | IC50 (EGFR Del19/T790M/C797S; [6]) | IC50 (EGFR L858R/T790M/C797S; [7]) | IC50 (EGFR Del19/C797S; [8]) | IC50 (EGFR L858R/C797S; [9]) | IC50 (EGFR wildtype (WT); IC50 WT (nM), 100 μM ATP) | Structure (SMILES) | further results
7 | 2.6 nM | 14.5 nM | 28.3 nM | 238 nM | > 10000 nM | O=S(=O)(C1CC1)n1cc(-c2nccc(Nc3cc(N[C@H]4CC[C@@H](O)CC4)c(C#Cc4ccsc4)cn3)n2)cn1 [Example 217, (1s,4s)-4-((2-((2-(1-(Cyclopropylsulfonyl)-1H-pyrazol-4-yl)pyrimidin-4-yl)amino)-5-(thiophen-3-ylethynyl)pyridin-4-yl)amino)cyclohexan-1-ol] | 
8 | 0.5 nM | 0.8 nM | 6.7 nM | 44.7 nM | > 10000 nM | Cn1cnc(C#Cc2cnc(Nc3ccnc(-c4cnn(S(=O)(=O)C5CC5)c4)n3)cc2N[C@@H]2CC[C@H](O)C2)c1 [Example 223, (1S,3R)-3-((2-((2-(1-(Cyclopropylsulfonyl)-1H-pyrazol-4-yl)pyrimidin-4-yl)amino)-5-((1-methyl-1H-imidazol-4-yl)ethynyl)pyridin-4-yl)amino)cyclopentan-1-ol] | 
9 | 6.4 nM | 12.3 nM | 87.8 nM | 310 nM | > 10000 nM | O=S(=O)(C1CC1)n1cc(-c2nccc(Nc3cc(N[C@H]4CCC[C@H](O)C4)c(C#Cc4ccsc4)cn3)n2)cn1 [Example 225, (1 S,3S)-3-((2-((2-(1-(Cyclopropylsulfonyl)-1H-pyrazol-4-yl)pyrimidin-4-yl)amino)-5-(thiophen-3-ylethynyl)pyridin-4-yl)amino)cyclohexan-1-ol] | 
10 | 1.1 nM | 1.1 nM | 5.1 nM | 43.4 nM | > 10000 nM | CN1CCN(C2CCN(c3cc(Nc4ccnc(-c5cnn(S(=O)(=O)C6CC6)c5)n4)ncc3C#Cc3ccsc3)CC2)CC1 [Example 226, 2-(1-(Cyclopropylsulfonyl)-1H-pyrazol-4-yl)-N-(4-(4-(4-methylpiperazin-1-yl)piperidin-1-yl)-5-(thiophen-3-ylethynyl)pyridin-2-yl)pyrimidin-4-amine] | 
11 | 4.6 nM | 18.3 nM | 94.7 nM | 294 nM | > 10000 nM | O=S(=O)(C1CC1)n1cc(-c2nccc(Nc3cc(N4CCCC(O)C4)c(C#Cc4ccc(N5CCOCC5)nc4)cn3)n2)cn1 (stereo not shown) [Example 227, 1-(2-((2-(1-(Cyclopropylsulfonyl)-1H-pyrazol-4-yl)pyrimidin-4-yl)amino)-5-((6-morpholinopyridin-3-yl)ethynyl)pyridin-4-yl)piperidin-3-ol] | 
12 | 6.2 nM | 21.8 nM | 274 nM | 494 nM | > 10000 nM | O=S(=O)(C1CC1)n1cc(-c2nccc(Nc3cc(N4CCC[C@H](O)C4)c(C#Cc4ccsc4)cn3)n2)cn1 [Example 228, (S)-1-(2-((2-(1-(Cyclopropylsulfonyl)-1H-pyrazol-4-yl)pyrimidin-4-yl)amino)-5-(thiophen-3-ylethynyl)pyridin-4-yl)piperidin-3-ol] | 
13 | 8.9 nM | 26.9 nM | 175 nM | 368 nM | > 10000 nM | CC1(C)CN(c2cc(Nc3ccnc(-c4cnn(S(=O)(=O)C5CC5)c4)n3)ncc2C#Cc2ccsc2)CCC1O (stereo not shown) [Example 229, 1-(2-((2-(1-(Cyclopropylsulfonyl)-1H-pyrazol-4-yl)pyrimidin-4-yl)amino)-5-(thiophen-3-ylethynyl)pyridin-4-yl)-3,3-dimethylpiperidin-4-ol] | 
14 | 1.6 nM | 1.5 nM | 3 nM | 4.6 nM | 968 nM | CC1(CO)CCN(c2cc(Nc3ccnc(-c4cnn(S(=O)(=O)C5CC5)c4)n3)ncc2C#Cc2cnn(CC3CCOCC3)c2)CC1 [Example 231, (1-(2-((2-(1-(Cyclopropylsulfonyl)-1H-pyrazol-4-yl)pyrimidin-4-yl)amino)-5-((1-((tetrahydro-2H-pyran-4-yl)methyl)-1H-pyrazol-4-yl)ethynyl)pyridin-4-yl)-4-methylpiperidin-4-yl)methanol] | IC50 (EGFR Del19/T790M/C797S; [10]): 1.7 nM; IC50 (EGFR L858R/T790M/C797S; [11]): 0.9 nM; IC50 (EGFR Del19/C797S; [12]): 1.3 nM; IC50 (EGFR L858R/C797S; [13]): 1.1 nM; IC50 (EGFR wildtype (WT); [14]): 6.1 nM
15 | 2.5 nM | 3.9 nM | 1.7 nM | 17.5 nM | 4180 nM | CC1(CO)CCN(c2cc(Nc3ccnc(-c4cnn(S(=O)(=O)C5CC5)c4)n3)ncc2C#Cc2cnn(CC3CCCOC3)c2)CC1 (stereo not shown) [Example 241, (1-(2-((2-(1-(Cyclopropylsulfonyl)-1H-pyrazol-4-yl)pyrimidin-4-yl)amino)-5-((1-((tetrahydro-2H-pyran-3-yl)methyl)-1H-pyrazol-4-yl)ethynyl)pyridin-4-yl)-4-methylpiperidin-4-yl)methanol] | IC50 (EGFR Del19/T790M/C797S; [15]): 2.1 nM; IC50 (EGFR L858R/T790M/C797S; [16]): 0.8 nM; IC50 (EGFR Del19/C797S; [17]): 1.2 nM; IC50 (EGFR L858R/C797S; [18]): 2.3 nM; IC50 (EGFR wildtype (WT); [19]): 9.1 nM

Reference: patent US11981658B2, “Substituted aminopyridine compounds as EGFR inhibitors” (YUHAN CORPORATION, priority 2021, dated 2024)
